Assay results from patent US20250101041A1, “POSITIVE ALLOSTERIC MODULATORS OF THE MUSCARINIC ACETYLCHOLINE RECEPTOR M4” (Vanderbilt University, priority 2022, published 2025).
pEC50: −log10 of the molar value.

Target: T1, human mAChR M4 (Homo sapiens, UniProt P08173)
T1 construct: expressed in transfected cells; host or cells: CHO-K1 (American Type Culture Collection), stably expressing hM4 and Gqi5
T1 sequence (P08173 1-479): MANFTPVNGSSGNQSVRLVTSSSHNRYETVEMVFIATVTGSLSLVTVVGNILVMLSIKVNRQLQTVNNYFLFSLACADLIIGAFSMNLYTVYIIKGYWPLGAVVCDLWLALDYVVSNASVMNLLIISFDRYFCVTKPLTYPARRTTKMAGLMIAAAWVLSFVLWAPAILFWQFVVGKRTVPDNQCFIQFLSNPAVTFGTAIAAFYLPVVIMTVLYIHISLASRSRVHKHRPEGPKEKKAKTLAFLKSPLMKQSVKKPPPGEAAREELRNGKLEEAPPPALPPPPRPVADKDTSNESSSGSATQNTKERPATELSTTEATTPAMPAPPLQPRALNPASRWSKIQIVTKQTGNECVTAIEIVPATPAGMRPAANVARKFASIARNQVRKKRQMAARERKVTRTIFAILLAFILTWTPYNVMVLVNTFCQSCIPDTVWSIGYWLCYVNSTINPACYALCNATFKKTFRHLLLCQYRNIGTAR
Assay: mAChR M4 cell-based functional assay: calcium mobilization (Fluo-4, FDSS), potentiation of EC20 acetylcholine response in hM4-Gqi5 CHO-K1 cells
Conditions: human M4; for pEC50: potentiation of EC20 acetylcholine response, calcium mobilization; for Emax at 30 µM: CHO-K1, % ACh maximum at 30 μM
In short: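 Readout is the fluorescence-ratio rise at 1 Hz on FDSS, with PAM activity taken as concentration-dependent enhancement of the EC20 acetylcholine response, fitted four-parameter for EC50/Emax. hM4-Gqi5 CHO-K1 cells carried Fluo-4 AM dye; test compounds (11 points, 1:3) preceded EC20 acetylcholine additions at 144 s and 230 s.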

SMILES	Emax (%)* (% ACh maximum at 30 μM) [%]	pEC50	Emax at 30 µM [%]
Cc1cncc(-c2cnc3c(c2)CN(c2nn4c(=O)cc(C(F)F)nc4c(C)c2C)CC3)c1 [Compound 1-119, 2-(difluoromethyl)-8,9-dimethyl-7-(3-(5-methylpyridin-3-yl)-7,8-dihydro-1,6-naphthyridin-6(5H)-yl)-4H-pyrimido[1,2-b]pyridazin-4-one]	–	–	85
Cc1c(N2CCc3ncc(-c4cnc5ccccc5c4)cc3C2)nn2c(=O)ccnc2c1C [Compound 1-224, 8,9-dimethyl-7-(3-(quinolin-3-yl)-7,8-dihydro-1,6-naphthyridin-6(5H)-yl)-4H-pyrimido[1,2-b]pyridazin-4-one]	–	6.19	60
Cc1c(N2CCc3ncc(-c4cnn(-c5ccccn5)c4)cc3C2)nn2c(=O)ccnc2c1C [Compound 1-153, 8,9-dimethyl-7-(3-(1-(pyridin-2-yl)-1H-pyrazol-4-yl)-7,8-dihydro-1,6-naphthyridin-6(5H)-yl)-4H-pyrimido[1,2-b]pyridazin-4-one]	–	6.23	67
COCc1cc(=O)n2nc(N3CCc4ncc(-c5cncnc5)cc4C3)c(C)cc2n1 [Compound 1-324, 2-(methoxymethyl)-8-methyl-7-(3-(pyrimidin-5-yl)-7,8-dihydro-1,6-naphthyridin-6(5H)-yl)-4H-pyrimido[1,2-b] pyridazin-4-one]	–	–	59
CCc1ccncc1-c1cnc2c(c1)CN(c1nn3c(=O)ccnc3c(C)c1C)CC2 [Compound 1-96, 7-(3-(4-ethylpyridin-3-yl)-7,8-dihydro-1,6-naphthyridin-6(5H)-yl)-8,9-dimethyl-4H-pyrimido[1,2-b]pyridazin-4-one]	–	7.43	63
COc1cncc(-c2cnc3c(c2)CN(c2nn4c(=O)cc(C(F)F)nc4c(C)c2C)CC3)c1 [Compound 1-167, 2-(difluoromethyl)-7-(3-(5-methoxypyridin-3-yl)-7,8-dihydro-1,6-naphthyridin-6(5H)-yl)-8,9-dimethyl-4H-pyrimido[1,2-b]pyridazin-4-one]	–	6.45	80
Cc1c(N2CCc3ncc(-c4cnn(C(F)F)c4)cc3C2)nn2c(=O)ccnc2c1C [Compound 1-339, 7-(3-(1-(difluoromethyl)-1H-pyrazol-4-yl)-7,8-dihydro-1,6-naphthyridin-6(5H)-yl)-8,9-dimethyl-4H-pyrimido[1,2-b]pyridazin-4-one]	–	6.64	77
Cc1cc2nc(C(F)F)cc(=O)n2nc1N1CCc2ncc(C(F)(F)F)cc2C1 [Compound 1-26, 2-(difluoromethyl)-8-methyl-7-(3-(trifluoromethyl)-7,8-dihydro-1,6-naphthyridin-6(5H)-yl)-4H-pyrimido[1,2-b]pyridazin-4-one]	–	6.85	74
Cc1cc2nc(C(F)(F)F)cc(=O)n2nc1N1CCc2ncc(C(F)(F)F)cc2C1 [Compound 1-17, 8-methyl-2-(trifluoromethyl)-7-(3-(trifluoromethyl)-7,8-dihydro-1,6-naphthyridin-6(5H)-yl)-4H-pyrimido[1,2-b]pyridazin-4-one]	–	6.98	79
Cc1cc(=O)n2nc(N3CCc4ncc(-c5ccc(CO)s5)cc4C3)c(C)cc2n1 [Compound 1-299, 7-(3-(5-(hydroxymethyl)thiophen-2-yl)-7,8-dihydro-1,6-naphthyridin-6(5H)-yl)-2,8-dimethyl-4H-pyrimido[1,2-b]pyridazin-4-one]	–	7.39	93
CCc1ccccc1-c1cnc2c(c1)CN(c1nn3c(=O)ccnc3c(C)c1C)CC2 [Compound 1-342, 7-(3-(2-ethylphenyl)-7,8-dihydro-1,6-naphthyridin-6(5H)-yl)-8,9-dimethyl-4H-pyrimido[1,2-b]pyridazin-4-one]	–	6.69	72
Cc1cc2nc(C(=O)N3CC(C)(F)C3)cc(=O)n2nc1N1CCc2ncc(C(F)(F)F)cc2C1 [Compound 1-45, 2-(3-fluoro-3-methylazetidine-1-carbonyl)-8-methyl-7-(3-(trifluoromethyl)-7,8-dihydro-1,6-naphthyridin-6(5H)-yl)-4H-pyrimido[1,2-b]pyridazin-4-one]	–	6.78	100
Cc1c(N2CCc3ncc(-c4ccc(C5CC5)nc4)cc3C2)nn2c(=O)ccnc2c1C [Compound 1-91, 7-(3-(6-Cyclopropylpyridin-3-yl)-7,8-dihydro-1,6-naphthyridin-6(5H)-yl)-8,9-dimethyl-4H-pyrimido[1,2-b]pyridazin-4-one]	–	6.90	83
Cc1c(N2CCc3ncc(-c4cc(F)ncc4F)cc3C2)nn2c(=O)ccnc2c1C [Compound 1-268, 7-(3-(2,5-difluoropyridin-4-yl)-7,8-dihydro-1,6-naphthyridin-6(5H)-yl)-8,9-dimethyl-4H-pyrimido[1,2-b]pyridazin-4-one]	–	6.64	83

Now from value to compound:

Emax (%)* (% ACh maximum at 30 μM) [%]	pEC50	Emax at 30 µM [%]	SMILES
80	6.02	–	Cc1c(N2CCc3ncc(C(F)(F)F)cc3C2C)nn2c(=O)ccnc2c1C (single isomer, unassigned) [Compound 1-386, 8,9-dimethyl-7-(5-methyl-3-(trifluoromethyl)-7,8-dihydro-1,6-naphthyridin-6(5H)-yl)-4H-pyrimido[1,2-b] pyridazin-4-one]
–	6.85	92	COCc1cc(=O)n2nc(N3CCc4ncc(-c5ccco5)cc4C3)c(C)cc2n1 [Compound 1-371, 7-(3-(furan-2-yl)-7,8-dihydro-1,6-naphthyridin-6(5H)-yl)-2-(methoxymethyl)-8-methyl-4H-pyrimido[1,2-b]pyridazin-4-one]
–	5.78	56	Cc1cc2nccc(=O)n2nc1N1CCc2ncc(NC(=O)C3CC3)cc2C1 [Compound 2-108, N-(6-(8-methyl-4-oxo-4H-pyrimido[1,2-b]pyridazin-7-yl)-5,6,7,8-tetrahydro-1,6-naphthyridin-3-yl)cyclopropanecarboxamide]
–	7.70	96	Cc1ccc(F)cc1Nc1cnc2c(c1)CN(c1nn3c(=O)ccnc3cc1C)CC2 [Compound 2-69, 7-(3-((5-fluoro-2-methylphenyl)amino)-7,8-dihydro-1,6-naphthyridin-6(5H)-yl)-8-methyl-4H-pyrimido[1,2-b]pyridazin-4-one]
–	6.41	79	[2H]C1([2H])Cc2ncc(Nc3cccnc3C)cc2C([2H])([2H])N1c1nn2c(=O)ccnc2cc1C [Compound 2-163, 8-methyl-7-(3-((2-methylpyridin-3-yl)amino)-7,8-dihydro-1,6-naphthyridin-6(5H)-yl-5,5,7,7-d4)-4H-pyrimido[1,2-b]pyridazin-4-one]
–	5.67	66	Cc1cc(=O)n2nc(N3CCc4ncc(N5CCC6(CC5)COC6)cc4C3)c(C)c(C)c2n1 [Compound 2-47, 7-(3-(2-oxa-7-azaspiro[3.5]nonan-7-yl)-7,8-dihydro-1,6-naphthyridin-6(5H)-yl)-2,8,9-trimethyl-4H-pyrimido[1,2-b]pyridazin-4-one]
–	7.72	90	Cc1cc2nccc(=O)n2nc1N1CCc2ncc(Nc3ccccc3F)cc2C1 [Compound 2-98, 7-(3-((2-fluorophenyl)amino)-7,8-dihydro-1,6-naphthyridin-6(5H)-yl)-8-methyl-4H-pyrimido[1,2-b]pyridazin-4-one]
–	7.68	94	Cc1cc(Nc2cnc3c(c2)CN(c2nn4c(=O)ccnc4cc2C)CC3)c(F)cn1 [Compound 2-155, 7-(3-((5-fluoro-2-methylpyridin-4-yl)amino)-7,8-dihydro-1,6-naphthyridin-6(5H)-yl)-8-methyl-4H-pyrimido[1,2-b]pyridazin-4-one]
–	5.57	64	COc1cnccc1Nc1cnc2c(c1)CN(c1nn3c(=O)ccnc3cc1C)CC2 [Compound 2-112, 7-(3-((3-methoxypyridin-4-yl)amino)-7,8-dihydro-1,6-naphthyridin-6(5H)-yl)-8-methyl-4H-pyrimido[1,2-b]pyridazin-4-one]
–	5.91	100	Cc1c(N2CCc3ncc(N=S4(=O)CCCC4)cc3C2)nn2c(=O)ccnc2c1C [Compound 2-147, 8,9-dimethyl-7-(3-((1-oxidotetrahydro-126-thiophen-1-ylidene)amino)-7,8-dihydro-1,6-naphthyridin-6(5H)-yl)-4H-pyrimido[1,2-b]pyridazin-4-one]
–	7.96	98	Cc1cc2nccc(=O)n2nc1N1CCc2ncc(Nc3ccncc3F)cc2C1 [Compound 2-111, 7-(3-((3-fluoropyridin-4-yl)amino)-7,8-dihydro-1,6-naphthyridin-6(5H)-yl)-8-methyl-4H-pyrimido[1,2-b]pyridazin-4-one]
–	7.85	98	Cc1cc2nccc(=O)n2nc1N1CCc2ncc(N3CCOc4cc(F)ccc43)cc2C1 [Compound 2-56, 7-(3-(7-fluoro-2,3-dihydro-4H-benzo[b][1,4]oxazin-4-yl)-7,8-dihydro-1,6-naphthyridin-6(5H)-yl)-8-methyl-4H-pyrimido[1,2-b]pyridazin-4-one]
